Measurements reported in patent US20100003217A1, “Compounds and Pharmaceutical Compositions for the Treatment of Viral Infections” (priority 2008, published 2010).

Assays:
CYP3A4 [1] = target: T1, CYP3A4 (Homo sapiens, UniProt P08684); test: Effect of CYP3A4 inhibitors (ketoconazole, ritonavir) on metabolic stability in human liver microsomes; format: in vitro ADME; details: human microsomes 1 mg/mL, 60 min, 10 μM, NADPH
Experimental: Incubations were conducted in a final volume of 0.1 mL per incubation time point. […] Final solvent (DMSO or methanol) concentration was maintained at 0.2%. Reactions were initiated by the addition of an NADPH regenerating system (1.3 mM NADP^+, 3.3 mM glucose-6-phosphate, 0.4 U/ml glucose-6-phosphate dehydrogenase, and 3.3 mM MgCl2, final concentrations). Incubations with no inhibitor served as control. Reactions were terminated at 30 min (monkey) or 60 min (rat and human) by the addition of 0.2 mL of stop solution (acetonitrile). The samples were vortex-mixed for 30 sec and then centrifuged at 10,000×g for 10 min. The supernatant was dried using a Labconco CentriVap concentrator and the dry residue reconstituted in water, transferred to an HPLC glass vial and analyzed by HPLC-UV method 1 (described above).
Because Compound 1 is rapidly metabolized in monkey liver microsomes, incubation conditions were adjusted by reducing protein content to 0.5 mg/mL and incubation time to 30 min. Incubation conditions for rat and human were unchanged; protein was 1 mg/mL and incubation time was 60 min.

[2] = Cytotoxicity assay (MTS), Zluc cells; format: cell-based, human; details: human; Zluc cells, 3 days (Luciferase Assay columns)
Experimental: (§1) The cytotoxicity assay measures the viability of cells after treatment with a test compound for 3 days in either GS4.1 cells or Zluc cells. […] The cytotoxicity assay is summarized as follows. Ninety-six-well tissue culture plates were seeded with GS4.1 or Zluc cells. Antiviral compound solutions were made up freshly in medium as 2×-concentrated stocks. Eight additional 3-fold drug dilutions were prepared from these stocks in medium for a total of 9 dilutions. At least four hours after the cells were seeded, drug treatment was initiated by adding one volume of each 2×-concentrated drug dilution to one volume of cells/medium in the tissue culture plates. Cells were then incubated for 3 days at 37° C./5% CO2. After 3 days of treatment, the CellTiter 96® Aqueous One Solution cell proliferation assay (Promega) was performed by adding the MTS solution to each well. The plates were then incubated at 37° C./5% CO2 for 3.5 hours. Plates were then read in a Victor^3V 1420 multilabel counter (Perkin Elmer) and CC50 concentrations were determined using Microsoft Excel and XLfit 4.1 software.

[3] = Cytotoxicity assay (MTS), GS4.1 cells; format: cell-based, human; details: human, 3 days (NS4A-ELISA Assay)
Experimental: as §1

CYP3A4 [4] = target: T1, CYP3A4; test: Incubation with human recombinant CYP450 supersomes, 3A4; format: in vitro ADME; details: CYP450 3A4 supersomes, 60 min, 10 μM, average of two experiments
Experimental: (§2) Supersomes—Incubations were conducted in a final volume of 0.1 mL reaction buffer (50-100 mM potassium phosphate, pH 7.4 or 100 mM Tris-HCL, pH 7.4) according to protocol provided with each CYP450 supersome. Each reaction contained […] of CYP450 supersome, 1.3 mM NADP^+, 3.3 mM glucose-6-phosphate, 0.4 U/mL glucose-6-phosphate dehydrogenase, 3.3 mM MgCl2 and 10 μM Compound 1. Following incubation for 60 min at 37° C., 100 μL of stop solution (acetonitrile:methanol; 1:1) was added and samples centrifuged for 10 min at 10,000×g. The supernatant was then dried and reconstituted in 10 mM potassium phosphate, pH 5, further transferred to an HPLC glass vial and analyzed by HPLC-UV (described above).

CYP2D6 = CYP2D6 (Homo sapiens, UniProt P10635); test: Incubation with human recombinant CYP450 supersomes, 2D6; format: in vitro ADME; details: CYP450 2D6 supersomes, 60 min, 10 μM, average of two experiments
Experimental: as §2

CYP2A6 = CYP2A6 (Homo sapiens, UniProt P11509); test: Incubation with human recombinant CYP450 supersomes, 2A6; format: in vitro ADME; details: CYP450 2A6 supersomes, 60 min, 10 μM, average of two experiments
Experimental: as §2

CYP2C19 = CYP2C19 (Homo sapiens, UniProt P33261); test: Incubation with human recombinant CYP450 supersomes, 2C19; format: in vitro ADME; details: CYP450 2C19 supersomes, 60 min, 10 μM, average of two experiments
Experimental: as §2

[5] = tested on: HCV genotype 1b replicon (GS4.1 cells); test: HCV replicon assay (NS4A ELISA); format: cell-based, hepatitis C virus; details: Hepatitis C virus, 72 h, 3 days
Experimental: The biological activity of Compound 1, diastereomer 1 and diastereomer 2 was measured by monitoring expression of the NS4A protein by enzyme-linked immunosorbent assay (ELISA) and by luciferase assay as described below:
The HCV replicon assay measures the ability of a test compound to inhibit HCV replication in cell culture after 3 days of treatment in a human hepatoma cell line (Huh-7) bearing the HCV genotype 1b replicon (GS4.1 cells). The inhibition of HCV replication was measured by quantification of viral NS4A protein using an enzyme-linked immunosorbent assay (ELISA). […] Additionally, the replicon contains the neomycin phosphotransferase gene under the control of the HCV promoter (Source: Dr. Christoph Seeger, Fox Chase Cancer Center, Philadelphia, Pa.).
The NS4A ELISA assay is summarized as follows. Ninety-six-well tissue culture plates were seeded with GS4.1 cells. Antiviral compound solutions were made up freshly in medium as 2×-concentrated stocks. Eight additional 3-fold drug dilutions were prepared from these stocks in medium for a total of 9 dilutions. At least four hours after GS4.1 cells were seeded, drug treatment was initiated by adding one volume of each 2× concentrated drug dilution to one volume of cells/medium in the tissue culture plates. Cells were then incubated for 3 days at 37° C./5% CO2.
The media/compound was then removed from the plates and cells were fixed with acetone:methanol, washed three times with a wash solution, and then blocked for 1 hour with 10% fetal bovine serum in a balanced salt solution. Cells were washed three times and incubated with an anti-hepatitis C NS4A monoclonal antibody (Virogen Corp.) for 2 hours at 37° C. […] The reaction was stopped with diluted sulfuric acid (Mallinckrodt Chemicals) and absorbance measured on a Victor^3V 1420 multilabel counter (Perkin Elmer). EC50 values were calculated from dose response curves from the resulting best-fit equations determined by Microsoft Excel and XLfit 4.1 software.

[6] = Cytotoxicity (MTS assay), 184R-A cells; format: cell-based; details: human, 184R-A cells (S282T), 184R-A (S282T), N = 3
Experimental: Cells were plated and treated with inhibitors as described above.

CYP2C8 = CYP2C8 (Homo sapiens, UniProt P10632); test: Incubation with human recombinant CYP450 supersomes, 2C8; format: in vitro ADME; details: CYP450 2C8 supersomes, 60 min, 10 μM, average of two experiments
Experimental: as §2

T1 sequence (P08684 whole entry): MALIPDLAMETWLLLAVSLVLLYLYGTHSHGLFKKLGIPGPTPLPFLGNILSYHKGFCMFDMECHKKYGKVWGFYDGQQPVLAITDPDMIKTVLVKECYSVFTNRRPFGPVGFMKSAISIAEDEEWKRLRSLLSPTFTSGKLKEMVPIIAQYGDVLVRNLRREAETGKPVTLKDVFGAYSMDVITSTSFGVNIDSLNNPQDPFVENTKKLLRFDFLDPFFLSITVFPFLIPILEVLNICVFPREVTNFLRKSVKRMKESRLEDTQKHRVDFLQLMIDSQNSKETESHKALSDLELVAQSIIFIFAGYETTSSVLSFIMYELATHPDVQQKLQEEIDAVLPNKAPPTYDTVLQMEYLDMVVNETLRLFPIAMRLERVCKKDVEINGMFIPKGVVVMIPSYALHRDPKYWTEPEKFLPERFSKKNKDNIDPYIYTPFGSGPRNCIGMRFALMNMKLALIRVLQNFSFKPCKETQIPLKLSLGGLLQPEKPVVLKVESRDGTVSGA
Chain of CYP2C19 (P33261 whole entry): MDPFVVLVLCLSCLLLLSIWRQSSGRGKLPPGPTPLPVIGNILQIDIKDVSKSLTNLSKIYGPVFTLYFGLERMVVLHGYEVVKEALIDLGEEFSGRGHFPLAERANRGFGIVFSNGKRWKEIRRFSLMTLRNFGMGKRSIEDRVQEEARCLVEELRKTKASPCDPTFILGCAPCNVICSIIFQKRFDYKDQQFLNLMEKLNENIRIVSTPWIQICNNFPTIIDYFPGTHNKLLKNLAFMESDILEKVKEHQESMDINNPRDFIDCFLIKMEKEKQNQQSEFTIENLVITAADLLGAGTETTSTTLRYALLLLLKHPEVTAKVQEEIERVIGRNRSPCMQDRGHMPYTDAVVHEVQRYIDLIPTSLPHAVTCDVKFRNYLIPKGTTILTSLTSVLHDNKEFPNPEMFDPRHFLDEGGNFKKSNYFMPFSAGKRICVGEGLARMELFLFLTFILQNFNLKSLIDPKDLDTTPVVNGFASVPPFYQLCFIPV
Chain of CYP2A6 (P11509 whole entry): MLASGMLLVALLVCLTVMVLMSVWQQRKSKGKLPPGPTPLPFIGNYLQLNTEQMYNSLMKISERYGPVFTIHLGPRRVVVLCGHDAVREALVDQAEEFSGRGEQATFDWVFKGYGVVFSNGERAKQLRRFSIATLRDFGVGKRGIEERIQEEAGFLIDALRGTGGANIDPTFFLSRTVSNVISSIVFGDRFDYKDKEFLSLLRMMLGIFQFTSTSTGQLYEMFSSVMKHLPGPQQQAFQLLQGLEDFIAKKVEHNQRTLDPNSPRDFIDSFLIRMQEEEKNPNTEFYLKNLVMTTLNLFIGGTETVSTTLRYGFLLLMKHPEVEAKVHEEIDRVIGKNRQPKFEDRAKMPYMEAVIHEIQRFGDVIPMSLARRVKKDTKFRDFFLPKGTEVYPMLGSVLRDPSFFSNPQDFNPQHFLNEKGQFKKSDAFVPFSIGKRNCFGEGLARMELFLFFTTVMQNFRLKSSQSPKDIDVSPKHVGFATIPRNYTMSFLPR
Chain of CYP2C8 (P10632 whole entry): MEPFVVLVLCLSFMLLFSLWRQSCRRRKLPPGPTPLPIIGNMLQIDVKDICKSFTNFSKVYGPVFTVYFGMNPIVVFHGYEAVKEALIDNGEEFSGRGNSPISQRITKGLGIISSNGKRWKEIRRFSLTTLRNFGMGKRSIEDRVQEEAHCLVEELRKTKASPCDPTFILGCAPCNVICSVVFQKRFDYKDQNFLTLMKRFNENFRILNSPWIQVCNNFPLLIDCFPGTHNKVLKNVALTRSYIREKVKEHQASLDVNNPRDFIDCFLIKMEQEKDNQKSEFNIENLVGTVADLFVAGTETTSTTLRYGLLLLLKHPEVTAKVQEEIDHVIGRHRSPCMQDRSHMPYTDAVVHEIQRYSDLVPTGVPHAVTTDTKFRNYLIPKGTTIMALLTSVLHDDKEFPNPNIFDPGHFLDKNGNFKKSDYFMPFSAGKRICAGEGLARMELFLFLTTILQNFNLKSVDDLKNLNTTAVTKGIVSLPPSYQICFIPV
Chain of CYP2D6 (P10635 whole entry): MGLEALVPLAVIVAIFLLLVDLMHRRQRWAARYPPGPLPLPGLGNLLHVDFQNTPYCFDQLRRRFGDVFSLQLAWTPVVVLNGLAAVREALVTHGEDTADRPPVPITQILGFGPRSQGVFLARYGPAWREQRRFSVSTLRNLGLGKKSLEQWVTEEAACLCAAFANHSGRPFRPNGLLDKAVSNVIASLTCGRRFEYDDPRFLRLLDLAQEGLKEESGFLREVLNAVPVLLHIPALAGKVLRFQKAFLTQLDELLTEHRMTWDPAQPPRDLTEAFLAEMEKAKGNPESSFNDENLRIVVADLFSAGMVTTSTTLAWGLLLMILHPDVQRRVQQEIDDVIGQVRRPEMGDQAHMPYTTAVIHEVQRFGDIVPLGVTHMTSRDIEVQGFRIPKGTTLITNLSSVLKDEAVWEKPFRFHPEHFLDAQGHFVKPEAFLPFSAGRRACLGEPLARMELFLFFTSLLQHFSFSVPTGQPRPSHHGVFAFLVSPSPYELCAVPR

SMILES: CC(C)(CO)C(=O)SCCOP(=O)(NCc1ccccc1)OC[C@H]1O[C@@H](n2cnc3c(=O)[nH]c(N)nc32)[C@](C)(O)[C@@H]1O (mixture of isomers) [Compound 1, 3-hydroxy-2,2-dimethyl-thiopropionic acid S-(2-{[(2R,3R,4R,5R)-5-(2-amino-6-oxo-1,6-dihydro-purin-9-yl)-3,4-dihydroxy-4-methyl-tetrahydro-furan-2-ylmethoxy]-benzylamino-phosphoryloxy}-ethyl) ester]
- % Residual Compound 1 (CYP3A4 [1]; Ketoconazole 0.1 μM): 103%
- % Residual Compound 1 (CYP3A4 [1]; Ketoconazole 1 μM): 117%
- % Residual Compound 1 (CYP3A4 [1]; Ritonavir 0.1 μM): 92%
- % Residual Compound 1 (CYP3A4 [1]; Ritonavir 1 μM): 117%
- % Residual Compound 1 (CYP3A4 [1]; inhibitor 0 μM): 65%
- CC50 at 3 days [2]: > 100 µM
- CC50 at 3 days [3]: > 100 µM
- % Residual Compound 1 (CYP3A4 [4]): 62%
- % Residual Compound 1 (CYP2D6): 102%
- % Residual Compound 1 (CYP2A6): 105%
- % Residual Compound 1 (CYP2C19): 111%
- EC50 [5]: 379 ± 83 nM
- CC50 at 3 days [6]: > 100 µM
- % Residual Compound 1 (CYP2C8): 105%
